Values of other authors, collected in US20110076334A1, “METHODS AND COMPOSITIONS FOR TREATMENT OF RAYNAUD'S PHENOMENON” (priority 2009, published 2011).
Read-outs that look alike come from different tables or passages of the source.

Legend:
[1] = in vivo
[2] = ultra-short acting calcium channel blocker; marketed injectable emulsion
[3] = clevidipine

Row | Molecule | half-life (second phase) [1] | initial phase half-life [1] | terminal half-life [1] | onset of action [2] [min] | initial phase half-life [3] | terminal half-life [3]
1 | (±)-2-(benzyl-methyl amino) ethyl methyl 1,4-dihydro-2,6-dimethyl-4-(m-nitrophenyl)-3,5-pyridinedicarboxylate monohydrochloride [nicardipine] | about 44.8 minutes | approximately 2.7 minutes | approximately 14.4 hours |  |  | 
2 | CCCC(=O)OCOC(=O)C1=C(C)NC(C)=C(C(=O)OC)[C@H]1c1cccc(Cl)c1Cl (stereo in doubt) [Clevidipine, butyroxymethyl methyl 4-(2′,3′-dichlorophenyl)-2,6-dimethyl-1,4-dihydropyridine-3,5-dicarboxylate] |  |  |  | 1 to 2 | approximately 1 minute | approximately 15 minutes
